Measurements reported in patent EP0183271B1, “Lysin derivative and proteinase inhibitor” (Okamoto, Shosuke, priority 1984, dated 1986).
pIC50: −log10 of the molar value. Where a name gives a salt, the structure may show the parent alone. Square brackets hold non-standard residues; d marks the D form. Peptide text beside a SMILES is read from it. * marks the point of attachment. dPhg = N[C@@H](C(=O)O)c1ccccc1; Tos = Cc1ccc(S(=O)(=O)*)cc1

Experiments:
[1] = target: T1, Plasmin (Homo sapiens, UniProt P00747); experiment: biochemical; conditions: substrate S-2251
T1 sequence (P00747 581-810 limits assumed): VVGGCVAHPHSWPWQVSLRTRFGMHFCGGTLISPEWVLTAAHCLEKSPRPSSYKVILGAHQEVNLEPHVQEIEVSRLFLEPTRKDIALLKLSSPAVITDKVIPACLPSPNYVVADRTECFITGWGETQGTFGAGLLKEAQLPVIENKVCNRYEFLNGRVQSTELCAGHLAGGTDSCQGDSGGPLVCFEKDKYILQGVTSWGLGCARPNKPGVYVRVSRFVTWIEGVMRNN
T1 sequence (P00747 97-580 partner limits assumed): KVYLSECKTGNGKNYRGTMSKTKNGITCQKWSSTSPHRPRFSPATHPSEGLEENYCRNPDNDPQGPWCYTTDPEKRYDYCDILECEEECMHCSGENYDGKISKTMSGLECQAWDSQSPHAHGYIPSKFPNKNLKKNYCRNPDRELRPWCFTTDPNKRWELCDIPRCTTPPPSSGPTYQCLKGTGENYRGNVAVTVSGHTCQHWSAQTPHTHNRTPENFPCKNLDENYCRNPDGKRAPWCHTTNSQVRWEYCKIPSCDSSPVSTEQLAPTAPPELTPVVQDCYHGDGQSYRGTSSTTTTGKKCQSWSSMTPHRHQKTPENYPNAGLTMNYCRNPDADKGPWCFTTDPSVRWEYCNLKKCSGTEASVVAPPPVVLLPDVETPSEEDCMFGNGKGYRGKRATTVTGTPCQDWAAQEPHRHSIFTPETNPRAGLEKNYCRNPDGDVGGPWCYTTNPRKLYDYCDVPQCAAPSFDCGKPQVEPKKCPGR
Procedure: (§1) (1) Evaluation of Antiplasmin Activity
(ii) Determination of prevention activity for S-2251 decomposition
An inhibitor sample is dissolved in a 0.05 M Tris-hydrochloric acid buffer solution (pH = 7.4) to make the total volume to 400 µl. To this solution, 50 pl of a 3 mM S-2251 solution is added and the mixture is incubated at a temperature of 37°C for 5 minutes in a constant temperature bath. Then, 50 pl of a 0.2 casein unit/ml human plasmin is added and the mixture is incubated at a temperature of 37°C for 4 minutes. Thereafter, the reaction is stopped by adding 50 µl of 50% acetic acid.
The absorbance of p-nitroaniline formed in the reaction mixture is determined at 405 nm. Thus, the concentration I50 of the inhibitor sample, at which the absorbance is one half (i.e., 1/2) of that obtained in the absence of the inhibitor, is determined.

[2] = target: T1, Plasmin; experiment: biochemical
Procedure: as §1
(i) Determination of prevention activity for fibrin decomposition
0.18 M borate-physiological salt buffer solution (pH = 7.4) to make the total volme to 600 pl. To this buffer solution, 200 µl of a 0.2% bovin fibrinogen, 100 µl of a 0.3 cassein unit/ml human […] solution, and 100 µl of a 50 unit/ml bovine thrombin solution, all dissolved in the above-mentioned buffer, are added at a temperature of 37°C in a constant temperature bath. Then, the dissolution time of the fibrin mass formed above is determined.

[3] = target: human plasma kallikrein (Homo sapiens, UniProt P03952); experiment: Anti-plasma kallikrein activity: prevention of S-2302 decomposition; assay type: biochemical; conditions: Table III, known compounds of Table II; substrate S-2302; *1: 0% Inhibition at the given concentration; read-out: I50 Plasma Kallikrein S-2302
Chain of human plasma kallikrein (P03952 391-638 limits assumed): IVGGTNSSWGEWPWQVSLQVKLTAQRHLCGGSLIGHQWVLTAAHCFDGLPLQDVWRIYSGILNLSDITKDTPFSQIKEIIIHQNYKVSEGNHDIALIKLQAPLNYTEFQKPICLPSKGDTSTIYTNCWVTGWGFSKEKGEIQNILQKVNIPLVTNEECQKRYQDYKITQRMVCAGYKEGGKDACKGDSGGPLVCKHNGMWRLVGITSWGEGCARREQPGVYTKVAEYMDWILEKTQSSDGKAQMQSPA
Chain of human plasma kallikrein (P03952 20-390 partner limits assumed): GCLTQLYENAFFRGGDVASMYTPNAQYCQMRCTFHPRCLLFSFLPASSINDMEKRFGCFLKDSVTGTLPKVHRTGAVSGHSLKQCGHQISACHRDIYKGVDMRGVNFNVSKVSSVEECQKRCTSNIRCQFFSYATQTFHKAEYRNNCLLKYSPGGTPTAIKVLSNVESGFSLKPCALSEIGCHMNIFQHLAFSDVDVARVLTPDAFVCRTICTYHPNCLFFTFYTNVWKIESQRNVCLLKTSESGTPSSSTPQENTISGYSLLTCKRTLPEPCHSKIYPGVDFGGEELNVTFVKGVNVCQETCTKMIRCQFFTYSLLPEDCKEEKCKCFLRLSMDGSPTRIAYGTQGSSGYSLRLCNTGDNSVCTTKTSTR
Procedure: (4) Evaluation of Anti-Plasma Kallikrein Activity
Determination of prevention activity for S―2302 decomposition
An inhibitor sample is dissolved in a 0.05 M Tris-hydrochloric acid buffer solution (pH = 7.8) to make the total volume to 400 pl. To this solution, 50 pl of a 2 mM S-2302 solution is added and the mixture is incubated at a temperature of 37°C for 5 minutes in a constant temperature bath. Then, 50 µl of a 0.12 unit/ ml human plasma kallikrein is added and the mixture is incubated at a temperature of 37°C for 5 minutes. Thereafter, 50 pl of 50% acetic acid is added to terminate the reaction. The absorbance of the p-nitroaniline formed in the reaction mixture is measured at 405 nm. Thus, the concentration 150 of the inhibitor sample, at which the absorbance is one half (i.e., 1/2) of that obtained in the absence of the inhibitor sample, is determined.

[4] = target: T2, bovine trypsin (Bos taurus, UniProt P00760); experiment: Antitrypsin activity: inhibition of S-2238 decomposition; assay type: biochemical; conditions: Table III, known compounds of Table II; substrate S-2238; *1: 0% Inhibition at the given concentration; read-out: I50 Trypsin S-2238
T2 sequence (P00760 24-246): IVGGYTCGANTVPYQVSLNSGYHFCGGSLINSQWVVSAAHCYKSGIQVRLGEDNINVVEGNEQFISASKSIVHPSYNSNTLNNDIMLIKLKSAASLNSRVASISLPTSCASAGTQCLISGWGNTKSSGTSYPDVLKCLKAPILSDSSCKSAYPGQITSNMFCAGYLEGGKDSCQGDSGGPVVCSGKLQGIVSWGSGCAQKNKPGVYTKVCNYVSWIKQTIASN
Procedure: (3) Evaluation of Antitrypsin Activity
Determination of inhibition activity against S-2238 decomposition
An inhibitor sample is dissolved in a 0.05 M Tris-imidazole buffer solution (pH = 8.1) and 125 µl of a 1 mM S―2238 solution is added to make the total volume to 1.20 ml. The mixture is incubated at a temperature of 37°C for 5 minutes in a constant temperature bath. To this mixture, 0.05 ml of bovine trypsin is added and the absorbance, at 405 nm, of the p-nitroaniline formed per minute is determined at a temperature of 37°C by using the so-called initial velocity method. Thus, the concentration 15° of the inhibitor sample, at which the absorbance is one half (i.e., 1/2) of that obtained in the absence of the inhibitor, is determined.

[5] = target: human urokinase (Homo sapiens, UniProt P00749); experiment: Antiurokinase activity: prevention of S-2444 decomposition; assay type: biochemical; conditions: Table III, known compounds of Table II; substrate S-2444; *1: 0% Inhibition at the given concentration; read-out: I50 Urokinase S-2444
Procedure: (5) Evaluation of Antiurokinase Activity
Determination of prevention activity for S-2444 decomposition
An inhibitor sample is dissolved in a 0.05 M Tris-hydrochloric acid buffer solution (pH = 8.8) to make the total volume to 400 pl. To this solution, 50 pl of a 1 mM S―2444 solution is added and the mixture is incubated at a temperature of 37°C for 5 minutes in a constant temperature bath. Then, 50 µl of a 500 unit/ ml human urokinase is added and the mixture is incubated at a temperature of 37°C for 5 minutes. Thereafter, 50 pl of 50% acetic acid is added to terminate the reaction. The absorbance of the p-nitroaniline formed in the reaction mixture is measured at 405 nm. Thus, the concentration 150 of the inhibitor sample, at which the absorbance is one half (i.e., 1/2) of that obtained in the absence of the inhibitor, is determined.

[6] = target: T3, bovine thrombin (Bos taurus, UniProt P00735); experiment: Antithrombin activity: inhibition of fibrin formation from fibrinogen (coagulation time); assay type: biochemical; conditions: Table III, known compounds of Table II; coagulation time extended twice; *1: 0% Inhibition at the given concentration; read-out: I50 Thrombin Fibrinogen
Procedure: (§2) (2) Evaluation of Antithrombin Activity
(i) Determination of inhibition activity against fibrin formation
An inhibitor sample is dissolved in a 0.18 M borate-physiological salt buffer solution (pH = 7.4) to make the total volume to 500 µl. To this solution, 400 µl of a 0.2% bovine fibrinogen solution and 100 µl of a 4 unit/ ml bovine thrombin solution are added at a temperature of 37°C in a constant temperature bath. Thus, a coagulation time is determined. The inhibitor concentraion I50, at which the coagulation time obtained in the absence of the inhibitor is extended twice, is determined.

[7] = target: T3, bovine thrombin; experiment: Antithrombin activity: prevention of S-2238 decomposition; assay type: biochemical; conditions: Table III, known compounds of Table II; substrate S-2238; *1: 0% Inhibition at the given concentration; read-out: I50 Thrombin S-2238
Procedure: as §2
(ii) Determination of prevention activity for S-2238 decomposition
An inhibitor sample is dissolved in a 0.05 M Tris-hydrochloric acid buffer solution (pH = 8.3) to make a total volume to 400 µl. To this solution, 50 µl of a […] S-2238 solution is added and the mixture is incubated at a temperature of 37°C for 5 minutes in a constant temperature bath. Then, 50 µl of a 0.2 unit/ml bovine thrombin solution is added thereto and the absorbance, at 405 nm, of the p-nitroaniline formed per minute is determined at a temperature of 37°C by using the so-called initial velocity method. Thus, the concentration 150 of the inhibitor sample at which the absorbance is one half (i.e., 1/2) of that obtained in the absence of the inhibitor, is determined.

[8] = target: T1, Plasmin; experiment: Antiplasmin activity: prevention of fibrinogen decomposition; assay type: biochemical; conditions: Table IV, present compounds, read-out: I50 Fibrinogen
Procedure: as §1
(iii) Determination of prevention activity for fibrinogen
An inhibitor sample is dissolved in a 0.18 M borate-physiological salt buffer solution (pH = 7.4) to make the total volume to 400 µl. To this solution, 500 pl of a 0.4% bovine fibrinogen solution and 100 pl of a 1 casein unit/ml human plasmin solution, all dissolved in the above-mentioned buffer are added at a temperature of 37°C in a constant temperature bath. After the mixture is allowed to stand at a temprature of 37°C for 10 minutes, 3800 µl of the above-mentioned buffer containing (3.2 mM of tranexamic acid and 200 µl of a 50 unit/ml bovine thrombin solution are added to terminate the reaction. The mixture is incubated at a temperature of 37°C for 15 minutes to precipitate the fibrin. The fibrin mass thus precipitated is adhered to or wound around a glass rod and is then washed with water. The amount of the remaining fibrinogen is determined according to a tyrosine coloring method using a phenol reagent (see J. Biol. Chem., 73, 627 (1927). From the amount of the remaining fibrinogen thus determined, the amount of decomposed fibrinogen is calculated. Thus, the concentration 150 of the inhibitor sample, at which the amount of decomposed fibrinogen is one half (i.e., 1/2) of that obtained in the absence of the inhibitor sample, is determined.

[9] = Table IV, present compounds, plasmin, read-out: I50 S-2251
[10] = Table IV, present compounds, plasmin, fibrin decomposition, read-out: I50 Fibrin
[11] = Table III, known compounds of Table II, *1: 0% Inhibition at the given concentration, read-out: I50 Plasmin S-2251
[12] = Table III, known compounds of Table II, fibrin dissolution time extended twice, *1: 0% Inhibition, *2: 19% Inhibition at the concentration, read-out: I50 Plasmin Fibrin

Row | pIC50 [1, 9] | pIC50 [2, 10] | SMILES | further results
1 | 3.43 | 3.72 | Cc1ccc(S(=O)(=O)N[C@@H](CCCCN)C(=O)Nc2ccc(Cl)c(Cl)c2)cc1 [compound 35] | 
2 | 3.32 | 3.47 | Cc1ccc(S(=O)(=O)N[C@@H](CCCCN)C(=O)Nc2cccc(C#N)c2)cc1 [compound 29] | 
3 | 3.52 | 3.82 | Cc1ccc(S(=O)(=O)N[C@@H](CCCCN)C(=O)N2CCC(Cc3ccccc3)CC2)cc1 [compound 21] | 
4 |  |  | NCCCC[C@H](NS(=O)(=O)c1ccccc1)C(N)=O [compound 4] | pIC50 [3]: < 3.00; pIC50 [4]: < 3.82; pIC50 [1, 11]: < 3.00; pIC50 [5]: < 3.00; pIC50 [6]: < 3.00; pIC50 [2, 12]: < 3.00; pIC50 [7]: < 3.00
5 | 3.19 | 3.27 | CCOC(=O)c1ccc(NC(=O)[C@H](CCCCN)NS(=O)(=O)c2ccc(C)cc2)cc1 [compound 33] | 
6 | 3.23 | 3.36 | CCOC(=O)c1c(C)cc(NC(=O)[C@H](CCCCN)NS(=O)(=O)c2ccc(C)cc2)cc1C [compound 40] | 
7 | 3.22 | 3.37 | Cc1ccc(S(=O)(=O)N[C@@H](CCCCN)C(=O)Nc2ccc(C(F)(F)F)cc2)cc1 [compound 32] | 
8 |  |  | Cc1ccc(S(=O)(=O)N[C@@H](CCCCN)C(=O)O)cc1 [compound 5] | pIC50 [1, 11]: 2.85; pIC50 [2, 12]: 3.00
9 | 3.22 | 3.46 | Cc1ccc(S(=O)(=O)N[C@@H](CCCCN)C(=O)Nc2cccc(Cl)c2)cc1 [compound 18] | 
10 | 3.85 |  | Cc1ccc(S(=O)(=O)N[C@@H](CCCCN)C(=O)Nc2ccc(C(=O)c3ccccc3)cc2)cc1 [compound 36] | pIC50 [8]: 3.70
11 | 3.64 |  | Cc1ccc(S(=O)(=O)N[C@@H](CCCCN)C(=O)Nc2cc(C)nc3ccccc23)cc1 [compound 42] | 
12 | 2.77 | 3.51 | NCCCC[C@H](NS(=O)(=O)c1cccc2ccccc12)C(=O)Nc1ccc([N+](=O)[O-])cc1 [Compound No. 10] | 
13 | 3.60 | 3.85 | NCCCC[C@H](NC(=O)c1ccccc1)C(N)=O [Compound No. 8] | pIC50 [3]: < 3.00; pIC50 [4]: < 3.52; pIC50 [1, 11]: < 3.00; pIC50 [5]: < 3.00; pIC50 [6]: < 3.00; pIC50 [2, 12]: < 3.00; pIC50 [7]: < 3.00
14 | 3.89 |  | CN(C)c1cccc2c(S(=O)(=O)N[C@@H](CCCCN)C(=O)N3CCC(Cc4ccccc4)CC3)cccc12 [compound 48] | 
15 | 2.70 | 3.14 | CC1CCCN(C(=O)[C@H](CCCCN)NS(=O)(=O)c2cccc3c(N(C)C)cccc23)C1 (some centres unmarked) [compound 37] | 
16 | 3.19 | 3.22 | CCOC(=O)[C@H](NC(=O)[C@H](CCCCN)NS(=O)(=O)c1ccc(C)cc1)c1ccccc1 [compound 22] (Tos-Lys-[dPhg]-OEt) | 
17 | 3.15 | 3.11 | Cc1ccc(S(=O)(=O)N[C@@H](CCCCN)C(=O)Nc2ccc([N+](=O)[O-])cc2)cc1 [Compound No. 3, N^2-(p-toluenesulfonyl)-L-lysine p-nitroanilide hydrochloride] | pIC50 [1, 11]: 1.30; pIC50 [8]: 3.05
18 | 3.46 | 3.52 | NCCCCCC(=O)N[C@@H](CCCCN)C(=O)O [Compound No. 7] | pIC50 [3]: < 3.00; pIC50 [4]: < 3.70; pIC50 [1, 11]: < 3.00; pIC50 [5]: < 3.00; pIC50 [6]: < 3.00; pIC50 [2, 12]: < 3.00; pIC50 [7]: < 3.00
19 | 3.11 | 3.82 | Cc1ccc(S(=O)(=O)N[C@@H](CCCCN)C(=O)Nc2ccc(Oc3ccccc3)cc2)cc1 [compound 31] | 
20 | 3.41 | 4.12 | CCOC(=O)c1cc(NC(=O)[C@H](CCCCN)NS(=O)(=O)c2cccc3ccccc23)cc(C(=O)OCC)c1 [Compound No. 11] | pIC50 [8]: 4.10
21 | 2.70 | 3.00 | Cc1ccc(S(=O)(=O)N[C@H](CCCCN)C(=O)Nc2ccc(C(=O)c3ccccc3)cc2)cc1 [compound 20] | 
